# From a melting point compilation (Tetko et al.; mined from patent text by program, amines drawn as free bases though some values may be those of a salt)
row,SMILES,melting point [°C]
1,COc1ccc(OC)c2c1C[C@@H](O)[C@H](N1CCN(c3ccccc3Cl)CC1)C2 (relative stereo),237 to 239
2,Cc1c(Cl)cc([N+](=O)[O-])c(NC(C)C)c1[N+](=O)[O-],69 to 73
3,O=C(NCCNC1CCC(c2ccc3[nH]c(=O)oc3c2)CC1)c1ccccc1 (stereo unspecified),167 to 175
4,OC[C@@H]1O[C@H]1C#CC#CC#Cc1ccccc1 (relative stereo),68 to 70
5,CCOC(=O)c1cc(-n2c(=O)c(C)c(C)n(C)c2=O)ccc1Cl,159 to 161
6,Nc1nnc2ccc(N3CCCCC3)nn12,245 to 246
7,Cc1oc(-c2ccccc2)nc1COc1ccc(CON=C(CCC(=O)O)c2ccc(F)cc2)cc1,139 to 140
8,CC1(C)C(=O)Nc2ccc(-c3ccc(C#N)[nH]3)cc21,256 to 258
9,N#Cc1cc(F)c(N=c2snc3n2CCCC3)cc1F,137
10,CC1CC(=O)Nc2ccc(Br)cc21 (stereo unspecified),190
11,CCNC(=O)OCCOc1ccc(Oc2ccc(F)cc2)cc1Cl,42 to 43
12,COc1ccc2c(c1)C=C(/C=C/C=C/C=C/C(=O)O)CO2,250 to 252
13,Clc1ccc2c(c1)N=C(N1CCNCC1)c1nccn1C2,120 to 123
14,Cc1nc2ccccc2n2c(-c3cc(OCC(F)c4ccccn4)ccc3Cl)nnc12 (stereo unspecified),155 to 157
15,O=C(O)CSCCSc1cc(-c2ccccc2)c(O)c(-c2ccccc2)c1,125
16,O=C(CCl)Nc1ccc2c(c1NC(=O)c1ccno1)C(=O)c1ccccc1C2=O,212 to 213
17,Cc1oc2ccc(C3CC(=O)NC(=O)C3)cc2c1C,183 to 185
18,Cc1cc(-c2ccc(C#N)cc2)sc1C(=O)N[C@H](C)[C@](O)(Cn1cncn1)c1ccc(F)cc1F,176 to 177
19,Cc1cc(Oc2cccc(C#CC(C)N(O)C(N)=O)c2)ccc1F (stereo unspecified),141 to 142
20,Cc1nc(-c2ccccc2)sc1C(=O)NCc1ccc(OC(C)(C)C(=O)O)cc1,179
21,S=C(Cl)c1cc(C(Cl)(Cl)Cl)c(Cl)cc1Cl,79 to 81
22,OCC1Cc2c([nH]c3ccccc23)CN1C(=S)S (stereo unspecified),225 to 227
23,CC1(C)OC(=O)Nc2ccc(-c3cc(CC#N)ccc3F)cc21,184 to 187
24,O=S1(=O)NCN(C2CC2)c2ccc(O)cc21,187 to 189
25,COC1=CCCSC1c1cc(N2C(=O)C3=C(CCCC3)C2=O)ccc1Cl (stereo unspecified),116 to 119
26,C#Cc1c(C(C)C)cc(-c2ccccc2)nc1-c1ccc(F)cc1,121 to 124

row,SMILES,melting point [°C]
1,C=C(CCC(C)C1CCC2C3=C(C(=O)CC21C)C1(C)CCC(=O)C(C)C1CC3O)C(C)C(=O)O (stereo unspecified),196 to 198
2,CC[C@H](C)C(OCc1ccccc1F)[C@H]1[C@H]([N+](=O)[O-])[C@H](c2ccccc2)N[C@@H]1C(=O)NCCC(=O)O (stereo partly specified),136 to 138
3,Cc1ccccc1C(=C1CN(C(c2ccccc2)c2ccccc2)C1)S(C)(=O)=O,218
4,C=C(CCC)C(=O)c1ccc(OCCCC(=O)O)c(Cl)c1Cl,85 to 87
5,COc1ccc(S(=O)(=O)C2(C(=O)NO)CCN(Cc3ccc(-c4ccccc4)cc3)CC2)cc1,168
6,Cn1c(CCl)cnc1[N+](=O)[O-],100 to 101
7,CCOC(=O)c1coc2ccc(-c3nnc(C)o3)cc12,135 to 136
8,C[C@H](N)C(=O)NC(C)(Cc1ccc(F)cc1)c1ccc(F)cc1 (stereo partly specified),134 to 135
9,O=C1N(CC2CCCO2)c2cccc(Br)c2C12COc1cc3c(cc12)CCO3 (stereo unspecified),137 to 141
10,CON(C)C(=O)c1c(-c2ccc(Cl)cc2)nsc1-c1ccccc1,119 to 120
11,CCOC(=O)Cc1c(-c2ccc(Cl)cc2)nn2cc(Cl)cnc12,139 to 140
12,CCOC(=O)c1cnc2c(c(C)nc3cc(C)nn32)c1O,207 to 208
13,O=C(Nc1ccc(CP(=O)(O)O)cc1)c1cc(=O)c2ccccc2o1,265 to 266
14,CCCCCS(=O)(=O)NC(=O)/C(=C/c1ccc(OCCOC)cc1Oc1ncc(Cl)cc1Cl)CC,118
15,COc1c(N2CC(C)C(C)(N)C2)c(F)cc2c(=O)c(C(=O)O)cn(C3CC3F)c12 (stereo unspecified),195 to 196
16,CN1CCN(c2cccc3c2C[C@H](NC(=O)c2csc(-c4ccncc4)n2)CC3)CC1,187 to 188
17,COc1ccc(C(=O)Nc2ccc3ccc(Oc4cccc(Cl)c4)nc3n2)cc1,182
18,O=C(O)C(Cc1occ2ccccc12)NC(=O)C(CS)C(F)(F)F (stereo unspecified),143 to 145
19,COc1ccc(NC(=O)c2ccc(Br)cc2)cc1N1CCN(C)CC1,158 to 160
20,Brc1ccc(N2CCN(Cc3ccccc3)CC2)nc1,100
21,CCOC(=O)C(C(=O)Nc1nccs1)C(=O)c1cccc(C(F)(F)F)c1NC(=O)C(Cl)Cl (stereo unspecified),90
22,O=C(O)Cc1cc(OCc2ccc3ccccc3n2)ccc1Nc1c(Cl)cccc1Cl,162
23,Cc1cc(I)ccc1Nc1c(-c2nnc(S)o2)ccc(F)c1F,232 to 233
24,Cc1nc(O)c(C(=O)O)cc1Cl,291 to 294
25,O=C(C=Cc1ccc(COC2OC(CO)C(O)C(O)C2O)o1)c1ccccc1 (stereo unspecified),127
26,Cc1cc(O)c(S(=O)Cc2ccc(F)cc2)c(=O)o1 (stereo unspecified),127 to 128

row,SMILES,melting point [°C]
1,CCOc1cc(C(CC(=O)CC)N2C(=O)c3cccc(NC(C)=O)c3C2=O)ccc1OC (stereo unspecified),137 to 139
2,CCCc1cc(F)c2oc(Cc3ccc(OC)cc3)c(C)c2c1OC(=O)OCC,85 to 88
3,CC(=O)C1CCC2C3CC(C)C4CC(O)CCC4(C)C3C(O)CC12C (stereo unspecified),211 to 213
4,Cc1ccc(S(=O)(=O)OCCC2CCc3ccccc3O2)cc1 (stereo unspecified),57 to 59
5,O=C(Cl)c1cscc1S(=O)(=O)Cl,78 to 79
6,COC(=O)c1cc(I)c(C(F)(F)F)cc1N,101 to 103
7,O=CC1CCSc2[nH]c3ccccc3c21 (stereo unspecified),60 to 65
8,C[C@@H](SCCCO)[C@](O)(Cn1cncn1)c1ccc(F)cc1F (relative stereo),119 to 120
9,CCc1c(C)[nH]c2cc(OCCN3CCOCC3)c(Cl)cc2c1=O,270 to 271
10,O=C(NC1CCCCC1)Oc1ccc(N=C=S)cc1,170 to 173
11,C=C1CC(Cn2cc(C)c(=O)[nH]c2=O)(c2ccc(-c3ccccc3)cc2)OC1=O (stereo unspecified),217 to 219
12,COc1cccc([C@H]2O[C@H](CC(=O)Nc3cc(CCCCC(=O)O)ccc3F)C(=O)N(CC(C)(C)CO)c3ccc(Cl)cc32)c1OC,115 to 118
13,COc1ccc2c(c1)CN(CCc1ccc([N+](=O)[O-])cc1)CC2,92 to 94
14,C=CCC1Oc2c(C)c(C)c(O)c(C)c2S1 (stereo unspecified),78.5 to 79.5
15,CC(C)S(=O)(=O)Nc1cc(C(=O)c2ccccc2)ccc1N,150 to 152
16,C#Cc1cccc(NC(=O)CCCC(=O)O)c1,150 to 154
17,Cc1cccc(-c2ccc(S(=O)(=O)N3c4ccccc4CC3C(=O)O)cc2)c1 (stereo unspecified),123 to 128
18,O=C(NCCCc1ccc(CCl)cc1)c1ccc(-c2ccccn2)cc1,115 to 117
19,COc1ccc(C(=O)O)cc1OC1CC=CC1,171 to 173
20,COc1ccc(C(=O)O)nc1Oc1cccc(C(F)(F)F)c1,116 to 118
21,O=C(OCC(Cl)(Cl)Cl)c1ncn2c1CN=C(c1ccccc1)c1cc(Br)ccc1-2,113 to 116
22,Cc1ccc2cccc(OCc3cccc(N)c3C)c2n1,223 to 227
23,CC(C)=CCN1CC(NC(=O)Nc2cccc(C(=O)O)c2)C(=O)N(CC(=O)c2ccccc2C)c2cc(C)ccc21 (stereo unspecified),129 to 131
24,CC(C)Oc1cccc2oc(-c3ccccc3)cc(=O)c12,98 to 99
25,Nc1nc(COCc2ccccc2)nc2nccnc12,112 to 114
26,CN(CCNC(N)=N[N+](=O)[O-])c1ccc(Cl)nc1,119 to 122

row,SMILES,melting point [°C]
1,CC1(C)COc2ccc(C(=O)O)cc2OC1,172 to 173
2,CC1(C)CCC(C)(C)c2cc(-c3cc(-c4ccc(C(=O)N5CCOCC5)cc4)ccc3-c3ccccc3)ccc21,223
3,CCOC(=O)C1CC(=O)c2c(C)c(O)c(C)c(C)c2O1 (stereo unspecified),120 to 121
4,N#Cc1cc(O)cc2nc(-c3ccc(O)cc3)oc12,180 to 183
5,CC(=O)NC(Cc1ccc(Cl)c(Cl)c1)C(=O)OCc1cc(C)cc(C)c1 (stereo unspecified),118 to 119
6,CC(C)(C)c1cc(CN=[N+]=[N-])nn1-c1ccc(S(C)(=O)=O)cc1,115 to 117
7,O=C(OCc1ccccc1)c1cc(OCc2ccccc2)c(OCc2ccccc2)cn1,117
8,CC1=NC(=NO)SC1(C)C,151 to 153
9,CS(=O)(=O)N1Cc2cccc(-c3ccc4cnc(Nc5ccc(C6CN(CC(N)=O)C6)cc5)nn34)c2C1,216 to 218
10,CCNC(=S)NC1CCCCc2sccc21 (stereo unspecified),117 to 120
11,C=CC(=O)Nc1ccc2ncnc(Nc3ccc(Oc4ccccc4)cc3)c2c1,185 to 191
12,COC(=O)C(=O)c1ccc(OCCCCSc2ccc3ccccc3c2)cc1,64 to 65
13,O=C(O)CCCOc1ccc([N+](=O)[O-])cc1,116 to 118
14,Cc1cc2cn[nH]c2c(C(=O)NC2(C3CC3)CC2)c1NC(=O)c1cc(OCC(F)(F)F)nn1-c1ncccc1Cl,240 to 242
15,Nc1cccnc1Nc1cccc(-c2cccnc2)c1,159 to 160
16,CCOc1ccc2nc(N)c3nc4n(c3c2c1)C(C)COC4 (stereo unspecified),187 to 188
17,CCOC(=O)c1cc(-n2c(=O)[nH]c(C)c(C)c2=O)ccc1Cl,202 to 204
18,C=C1CCC2C3CCc4cc(OC)ccc4C3CCC12C (stereo unspecified),59 to 62
19,COC(=O)c1ccc2cccc(C#N)c2c1,178 to 182
20,CCNC(=O)Nc1ccc(C(O)(C(F)(F)F)C(F)(F)F)cc1Br,125 to 127
21,CC(C)(C)OC(=O)N1CCC(Cc2c[nH]c3ccc(F)cc23)CC1,144 to 145
22,CCOC(=O)C(=C1CCCN1C)c1ccc(F)cc1,80
23,COc1ccc2c(c1OC)CCCC2(O)CN (stereo unspecified),138 to 140
